This is an account of results in patent US20020058244A1, “Method for detecting uracil biosynthesis inhibitors and their use as herbicides” (priority 2000, published 2002).

One experiment concerns OPRTase/ODCase. The experiment can be described thus: In vitro enzymatic conversion of [14C]-orotate to UMP, cell free extract from corn root tissue. Format: biochemical. How it is done: Etiolated corn roots and shoots or soybean suspension cells were used as tissue. Corn seedlings were germinated on vermiculite for 4 days in the dark at 26_C. and roots and shoots harvested separately. The soybean cells were grown in media consisting of Muashige and Skoog salts (Physiol. Plant (1962) 15:473-497) purchased from Gibco/BRL, vitamins (glycine 2 mg/L, thiamine 0.1 mg/L, nicotinic acid 0.5 mg/L, pyridoxine-HCl 0.5 mg/L), myo-inositol (100 mg/L), 2,4-D ([…]), and 30 g/L sucrose. Cell cultures are grown at 25° C. with gentle shaking. Cultures were transfered every 7 days to new growth media.
Approximately 5-10 g plant tissue were ground in liquid nitrogen and resuspended in 1:2 (w/v) homogenization buffer (30 mM KPO4^−; 25 mM […], 5 mM MgCl2, 5 mM ascorbic acid, pH 7.2). The homogenate was centrifuged at 10,000 g for 20 min, and the supernatant desalted using BioRad columns. The desalted supernatant was used for OPRTase/ODCase enzyme assays. For DHOD enzyme extraction, the supernatant was further centrifuged at 100,000 g for 45 min to obtain a microsomal pellet. The microsomal pellet was resuspended in 3-4 ml resuspension buffer (70 mM Tris-base, pH 7.4) containing 1% Triton X-100.
All enzyme assays were performed according to Rawls, J. M. (1978) Anal. Biochem. 86 (1): 107-117 and Cleaveland et al. (1995). Biochem. Pharm. 49(7):947-954. Enzyme assays were performed in a total volume of 200 ul with 1 uM [^14C]carbamoyl aspartate, [^14C]dihydroorotate or [^14C]orotate as substrates, and 1-5 mM probe compound or barbiturate as inhibitors. The [^14C]carbamoyl aspartate and [^14C]dihydroorotate assay was performed using a potassium phosphate buffer, pH 7.4 with 12 mM NAD^+, and 10 mM MgCl2. […] Over time, 25 ul aliquots were taken from the reaction tube and boiled for 5 min to stop the reaction. Samples were spotted onto cellulose TLC plates and run using 0.1 M potassium phosphate buffer, 100% ammonium sulfate, and 1-propanol (10:6:1). Plates were developed using a TLC plate radioisotope detector. Orotate and UMP standards were run next to unknowns to identify the conversion of [^14C]orotate to [^14C]UMP in the enzyme assay.

For the next experiment, the target named is T1, OPRTase (Rattus norvegicus, UniProt A0ACM8Q7Z8).
T1 construct: host or cells: rat brain tissue
T1 sequence (A0ACM8Q7Z8 1-481): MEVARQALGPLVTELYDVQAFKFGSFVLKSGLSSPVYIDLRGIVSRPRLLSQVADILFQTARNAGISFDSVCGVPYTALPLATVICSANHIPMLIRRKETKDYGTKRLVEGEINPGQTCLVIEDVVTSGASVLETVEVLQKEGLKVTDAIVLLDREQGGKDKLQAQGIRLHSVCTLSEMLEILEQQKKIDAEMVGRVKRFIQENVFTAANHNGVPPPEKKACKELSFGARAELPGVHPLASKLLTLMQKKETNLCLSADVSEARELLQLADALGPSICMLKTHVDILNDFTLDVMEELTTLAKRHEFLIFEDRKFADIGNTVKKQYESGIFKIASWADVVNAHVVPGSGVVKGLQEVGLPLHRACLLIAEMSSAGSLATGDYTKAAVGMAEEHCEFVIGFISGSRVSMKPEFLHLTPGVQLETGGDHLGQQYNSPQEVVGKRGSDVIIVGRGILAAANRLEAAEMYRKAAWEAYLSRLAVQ
The settings on record: rat brain tissue; cited from earlier work.

In experiment [1] the target is T2, dihyroorotate dehydrogenase (DHOD) (Rattus norvegicus, UniProt Q63707).
T2 construct: host or cells: rat brain tissue
The settings on record: rat brain tissue; cited from earlier work.

Another experiment relates to whole plant. The experiment is described as follows: Whole plant injury by barbiturate. Conditions: in vivo.
A further experiment concerns the target uridine phosphorylase. Conditions: salvage pathway; cited from earlier work.
In a further experiment the target is T3, ODCase (Rattus norvegicus, UniProt A0ACM8Q7Z8).
T3 construct: host or cells: rat brain tissue
The settings on record: rat brain tissue; cited from earlier work.

T2 sequence (Q63707 whole entry): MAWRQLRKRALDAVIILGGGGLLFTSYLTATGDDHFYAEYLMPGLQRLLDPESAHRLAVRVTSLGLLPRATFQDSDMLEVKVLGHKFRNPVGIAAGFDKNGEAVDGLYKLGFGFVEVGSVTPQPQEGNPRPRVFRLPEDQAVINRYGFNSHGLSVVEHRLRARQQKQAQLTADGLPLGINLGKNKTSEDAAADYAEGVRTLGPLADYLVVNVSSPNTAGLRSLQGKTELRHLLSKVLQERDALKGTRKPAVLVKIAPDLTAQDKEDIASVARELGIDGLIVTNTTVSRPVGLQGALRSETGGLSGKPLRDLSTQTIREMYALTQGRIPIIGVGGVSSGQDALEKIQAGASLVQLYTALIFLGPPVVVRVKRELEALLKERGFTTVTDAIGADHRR

Regarding `O=C1CC(=O)NC(=O)N1` [barbiturate, reference compound], the “inhibition of the conversion of orotic acid to UMP” value with OPRTase/ODCase (1 mM) came out at 80%; in the experiment on OPRTase/ODCase (2 mM) it was 100%. In the experiment with OPRTase/ODCase (15 minutes after treatment, 100 μM PRPP, untreated control 55%), the “radiolabeled orotate converted to UMP” value worked out at 20%. Also, in the experiment with OPRTase/ODCase (FIG. 10, concentration not stated), the “inhibition of the conversion of [14C]-orotate to UMP” value was determined as 80%. The “effect on OPRTase/ODCase activity (conversion of [14C]-orotate to UMP)” value with OPRTase/ODCase (cell free extract) is on record as “inhibits”. The IC50 in the experiment with OPRTase/ODCase (corn root cell free extract, read-out: concentration at which there is 50% inhibition of UMP synthesis (IC50)) is below 270 µM. Moreover, the Ki (commonly a dissociation constant, usually derived from enzyme kinetics or from competition with a known ligand) at OPRTase was 18 µM; in experiment [1], 412 µM; at uridine phosphorylase, 786 µM; at ODCase, 75 µM. Also, the whole plant injury result in the experiment with whole plant is reported as “does not cause whole plant injury”.
